“Also recorded” adds a separate entry of the source.
Assays:
A375 malignant melanoma = assay: Inhibition of in vitro cell proliferation (A375); assay type: cell-based, human; details: Homo sapiens, A-375, 14C-thymidine incorporation;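 further: cells plated for 24 h, given compound for 24 h, then labelled with 14C-thymidine for another 24 h, with DMSO-only wells as control and counts read by scintillation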
C-Raf = C-Raf (Homo sapiens, UniProt P04049); assay: RAF Kinase Screening Assay (C-Raf); details: Compound 50 tested at 30 μM
C-Raf, sequence (P04049 whole entry, species assumed): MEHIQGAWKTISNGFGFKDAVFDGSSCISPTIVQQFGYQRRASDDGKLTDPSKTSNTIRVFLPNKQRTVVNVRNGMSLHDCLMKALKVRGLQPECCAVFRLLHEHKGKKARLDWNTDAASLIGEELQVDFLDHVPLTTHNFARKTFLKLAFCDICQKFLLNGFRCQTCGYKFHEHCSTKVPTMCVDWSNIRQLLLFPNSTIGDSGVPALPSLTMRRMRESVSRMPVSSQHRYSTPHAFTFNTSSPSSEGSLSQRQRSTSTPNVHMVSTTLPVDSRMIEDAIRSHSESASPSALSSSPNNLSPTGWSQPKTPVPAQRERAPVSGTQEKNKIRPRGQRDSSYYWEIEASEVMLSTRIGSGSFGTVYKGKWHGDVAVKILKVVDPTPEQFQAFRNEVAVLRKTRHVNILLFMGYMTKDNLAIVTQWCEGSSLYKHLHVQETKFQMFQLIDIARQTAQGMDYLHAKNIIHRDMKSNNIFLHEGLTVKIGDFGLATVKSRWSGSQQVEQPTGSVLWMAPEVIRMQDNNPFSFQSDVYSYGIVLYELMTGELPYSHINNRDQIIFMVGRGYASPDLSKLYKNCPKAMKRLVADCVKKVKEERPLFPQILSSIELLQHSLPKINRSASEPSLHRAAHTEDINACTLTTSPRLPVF

## CCNC(=O)Nc1ccc(Oc2ncnc(N)c2/C=N/OC)cc1Cl [Cpd 50, 1-{4-[6-amino-5-(methoxyimino-methyl)-pyrimidin-4-yloxy]-2-chloro-phenyl}-3-ethyl-urea]
A375 malignant melanoma
  IC50: 3.91 µM
C-Raf
  activity against C-Raf: no activity; also recorded: not active
